Source: patent US20100292246A1, “FORMULATIONS OF 1-(4-BENZOYL-PIPERAZIN-1-YL)-2-[4-METHOXY-7-(3-METHYL-[1,2,4]TRIAZOL-1-YL)-1H-PYRROLO[2,3-C]PYRIDIN-3-YL]-ETHANE-1,2-DIONE” (Bristol-Myers Squibb Company, priority 2004, published 2010)
Values after ≈ are worked out from the molar mass of the structure shown.

Columns and labels:
[1] = as disclosed in co-pending application; cited from earlier work
[2] = aqueous solubility of crystalline Compound (I); assay type: physicochemical; conditions: water (aqueous); crystalline material P-1
Excerpt: Compound (I) exists in several different crystalline forms: P-1, P-2, P-3, and P-4. […] The present invention relates to formulations that effectively deliver Compound (I).

| SMILES | solubility of Compound (I) in crystalline form [1] | solubility [2] |
| --- | --- | --- |
| COc1cnc(-n2cnc(C)n2)c2[nH]cc(C(=O)C(=O)N3CCN(C(=O)c4ccccc4)CC3)c12 [Compound (I), 1-(4-benzoyl-piperazin-1-yl)-2-[4-methoxy-7-(3-methyl-[1,2,4]triazol-1-yl)-1H-pyrrolo[2,3-c]pyridin-3-yl]-ethane-1,2-dione] | typically low |  |
| COc1cnc(-n2cnc(C)n2)c2[nH]cc(C(=O)C(=O)N3CCN(C(=O)c4ccccc4)CC3)c12 [Sample P-1, 1-(4-benzoyl-piperazin-1-yl)-2-[4-methoxy-7-(3-methyl-[1,2,4]triazol-1-yl)-1H-pyrrolo[2,3-c]pyridin-3-yl]-ethane-1,2-dione] |  | 2.7 µg/mL (≈ 5.7 µM) |
